In paper PMC11530130, “Peripherally restricted PICK1 inhibitor mPD5 ameliorates pain behaviors in murine inflammatory and neuropathic pain models” (JCI Insight, 2024):

Test system: mice, CFA model of inflammatory pain
Test: CFA model of inflammatory pain, von Frey, i.t. administration
Type: in vivo, mouse
Settings: CFA day 2, i.t. 20 μM, 7 μL
Method: Unless otherwise specified, wild type C57BL/6NRj mice (male and female, aged eight-weeks at the beginning of experiment) were used (Janvier, France). Animals were allowed at least seven days of habituation to the animal facility before initiation of experiment. Mice were group-housed in a temperature-controlled room, maintained on a 12/12hour light/dark cycle (lights on at 6 A.M) with free access to standard rodent chow (Altromin 1342 (Brogaarden, […]
Drug administration and dosing for animal experiments.
All compounds were diluted in PBS or saline (depending on control) and administered through different routes i.t. (7 μL/mouse)), i.p. (10 μL/g) or s.c. (10 μL/g)) as indicated. Doses of mPD5 were based on previous studies with TPD5 (6) with a subcutaneous dose-range included in the CFA studies further guiding dose selection for SNI, STZ and CIBP studies. Pregabalin dose was chosen based on previous experience from Phenotype Expertise (Marseilles, France). In the CIBP model, a dose of […] morphine was chosen to avoid hyperactivity, though known to provide only partial pain relief in this model. In remaining experiments, 5 mg/kg morphine was chosen, known to provide full pain relief, except for the conditioned place preference experiment, where 10 mg/kg was used instead in accordance with literature. […]

CCCCCCCCCCCCCC(=O)N(CCOCCOCCC(=O)N[C@@H](Cc1c[nH]cn1)C(=O)N[C@@H](Cc1c[nH]c2ccccc12)C(=O)N[C@@H](CC(C)C)C(=O)N[C@@H](CCCCN)C(=O)N[C@H](C(=O)O)C(C)C)CCOCCOCCC(=O)N[C@@H](Cc1c[nH]cn1)C(=O)N[C@@H](Cc1c[nH]c2ccccc12)C(=O)N[C@@H](CC(C)C)C(=O)N[C@@H](CCCCN)C(=O)N[C@H](C(=O)O)C(C)C [mPD5, myristoyl-NPEG4-(HWLKV)2]
effect on mechanical hypersensitivity (PWT) (1 hour and 5 hours after administration): significant relief of mechanical hypersensitivity
effect on mechanical hypersensitivity (PWT) (24 hours after administration): no effect
